Results taken from patent US20210112813A1, “HERBICIDAL COMPOSITION AND USE THEREOF” (NANTONG JIANGSHAN AGROCHEMICAL & CHEMICALS CO., LTD., priority 2019, published 2021).

Tests used:
Eclipta alba = test: Greenhouse pot test, pre-emergence soil treatment, visual control effect 30 days after treatment, Gowing method; assay type: in vivo
Bristlegrass = test: as above; assay type: in vivo
Experimental: In the present application, indoor combined action of the compound of herbicide active component A and B on weeds was measured to determine the combined effect of the composition on weeds, wherein the structure of the active component A was as follows:
The weed cultivation method was as follows: quantitative weed seeds abutilon and bristlegrass were respectively sown in a paper cup filled with nutrient soil with a diameter of 7 cm, and then cultivated in the greenhouse after covering the soil, suppressing and watering. The post-emergence stem and leaf treatment was performed when the grass weeds grew to 5-7 leaf stage, broad-leaved weeds grew to 6-8 leaf stage; the pre-emergence soil treatment was performed the second day after sowing, and the early post-emergence treatment was performed after sowing and before emergence; the experiment was repeated 3 times. After the treatment and drug solution naturally dried, the weeds were placed in the greenhouse to be managed according to conventional methods. According to the suppression or death of the weeds, a visual control effect investigation was conducted 30 days after the treatment. The application adopted the Gowing method to evaluate the combined effect of the proposed composition.
X—Weed control effect when the amount of herbicide component A is P;
Y—Weed control effect when the amount of herbicide component B is Q;
E0—Theoretical control effect when the amount of herbicide component A is […];
E—The measured control effect after the herbicide component A and the herbicide component B are mixed according to the above ratio.
When E−E0>10%, it is synergism; when E−E0<−10%, it is antagonism; when E−E0 value is between ±10%, it is addition.

`CCOCN(C(=O)CCl)c1c(C)cccc1CC` [Acetochlor] was tested, and the “Measured value E” value (Eclipta alba; Table 3, dose 75 ga.i./hm^2) was 10%, the “Measured value E” value (Eclipta alba; Table 3, dose 150 ga.i./hm^2) was 35% and the “Measured value E” value (Bristlegrass; Table 3, dose 75 ga.i./hm^2) was 50%. The “Measured value E” value (Bristlegrass; Table 3, dose 150 ga.i./hm^2) was 75%.

For `CCCCOCN(C(=O)CCl)c1c(CC)cccc1CC` [Butachlor], the “Measured value E” value (Eclipta alba; Table 3, dose 75 ga.i./hm^2) was 15%, the “Measured value E” value (Eclipta alba; Table 3, dose 150 ga.i./hm^2) was 25% and the “Measured value E” value (Bristlegrass; Table 3, dose 75 ga.i./hm^2) was 45%. For the same molecule, the “Measured value E” value (Bristlegrass; Table 3, dose 150 ga.i./hm^2) was 60%.
